In ChEMBL document CHEMBL4811267, “Structurally Diverse Diterpenoids from the Roots of Salvia deserta Based on Nine Different Skeletal Types” (J Nat Prod, 2021):

Assays:
MCF7 = test: Cytotoxicity against human MCF7 cells assessed as reduction in cell viability after 48 hrs by MTS assay; format: functional, cell-based; conditions: MCF7, 48 h
A549 = test: Cytotoxicity against human A549 cells assessed as reduction in cell viability after 48 hrs by MTS assay; format: functional, cell-based; conditions: A549, 48 h
SMMC-7721 = test: Cytotoxicity against human SMMC-7721 cells assessed as reduction in cell viability after 48 hrs by MTS assay; format: functional, cell-based; conditions: SMMC-7721, 48 h
SW480 = test: Cytotoxicity against human SW480 cells assessed as reduction in cell viability after 48 hrs by MTS assay; format: functional, cell-based; conditions: SW480, 48 h
HL-60 = test: Cytotoxicity against human HL60 cells assessed as reduction in cell viability after 48 hrs by MTS assay; format: functional, cell-based; conditions: HL-60, 48 h
BEAS-2B = test: Cytotoxicity against human BEAS2B cells assessed as reduction in cell viability after 48 hrs by MTS assay; format: cell-based

| Structure (SMILES) | IC50 (MCF7) [µM] | IC50 (A549) [µM] | IC50 (SMMC-7721) [µM] | IC50 (SW480) [µM] | IC50 (HL-60) [µM] | IC50 (BEAS-2B) [µM] |
| --- | --- | --- | --- | --- | --- | --- |
| CC(C)C1=C(O)C(=O)C2=C(C1=O)[C@H](O)[C@H]1C(C)(C)CCC[C@]21C | > 10 | > 10 | > 10 | > 10 | > 10 | > 10 |
| CC(C)C1=C(O)C(=O)C2=C(C=C3C(C)(C)CCC[C@@]32C)C1=O | > 10 | > 10 | > 10 | > 10 | > 10 | > 10 |
| CC(C)C1=C(O)C(=O)C2=C(C=C[C@H]3C(C)(C)CCC[C@]3(C)O2)C1=O | > 10 | > 10 | > 10 | > 10 | > 10 | > 10 |
| CC(C)c1cc(C(=O)O)c2c(c1O)O[C@]1(O)[C@@](C)(CO)CCC[C@]21C | > 10 | > 10 | > 10 | > 10 | > 10 | > 10 |
| CC(C)c1cc(O)c2c(c1O)C(=O)C[C@H]1C(C)(C)CCC[C@]21C | > 10 | > 10 | > 10 | > 10 | > 10 | > 10 |
| CC(C)c1cc2c(c(O)c1O)[C@@]1(C)CCCC(C)(C)C1=CC2=O [SALVINOLONE] | > 10 | > 10 | > 10 | > 10 | > 10 | > 10 |
| CO[C@@H]1C2=C(C(=O)C(O)=C(C(C)C)C2=O)[C@@]2(C)CCCC(C)(C)[C@H]12 | > 10 | > 10 | > 10 | > 10 | > 10 | > 10 |
| CC(C)c1cc2c(c(O)c1O)[C@@]1(C)CCCC(C)(C)[C@@H]1CC2=O [DEMETHYLCRYPTOJAPONOL] | > 10 | > 10 | > 10 | > 10 | > 10 | > 10 |
| COc1c(C(C)C)cc2c(c1O)[C@@]1(C)CCCC(C)(C)[C@@H]1CC2=O [CRYPTOJAPONOL] | > 10 | > 10 | > 10 | > 10 | > 10 | > 10 |
| CC(C)c1cc(C=O)c2c(c1O)OC(O)[C@H]1C(C)(C)CCC[C@]21C (some centres undefined) | > 10 | > 10 | > 10 | > 10 | > 10 | > 10 |
| CC(C)c1cc2c(cc1O)C(=O)C[C@H]1C(C)(C)CCC[C@]21C | > 10 | > 10 | > 10 | > 10 | > 10 | > 10 |
| CC(C)c1cc2c(cc1O)C=C[C@H]1C(C)(C)CCC[C@]21C | > 10 | > 10 | > 10 | > 10 | > 10 | > 10 |
| Cc1ccc2cc(C(C)C)c(O)c3c2c1C(=O)CCC(C)(C)O3 | > 10 | > 10 | > 10 | > 10 | > 10 | > 10 |
| CC(C)c1c(O)c(C=O)c2c(c1O)OC(O)[C@H]1C(C)(C)CCC[C@]21C (some centres undefined) | > 10 | > 10 | > 10 | > 10 | > 10 | > 10 |
| CC(C)c1cc2c(cc1O)[C@@]1(C)CC[C@H](O)C(C)(C)[C@@H]1CC2 [HINOKIOL] | > 10 | > 10 | > 10 | > 10 | > 10 | > 10 |
| CC(C)c1cc2c(c(O)c1O)[C@@]1(C)CCCC(C)(C)C1=C(O)C2=O [14-DEOXYCOLEON U] | 5.6 | 8.4 | 9.2 | > 10 | 6.2 | > 10 |
| CC(C)c1cc2c(c(O)c1O)[C@@]1(C)CCC[C@](C)(CO)C1=C(O)C2=O | > 10 | > 10 | > 10 | > 10 | > 10 | > 10 |
| CC(C)C1=C[C@]23CC[C@@H]4C(=CCCC4(C)C)[C@H]2CC(=O)[C@]3(O)C1=O | > 10 | > 10 | > 10 | > 10 | > 10 | > 10 |
| CC(C)c1c(O)c(O)c2c(c1C=O)[C@H](O)[C@H]1C(C)(C)CCC[C@]21C | > 10 | > 10 | > 10 | > 10 | > 10 | > 10 |
| CC(C)c1cc(C(=O)O)c2c(c1O)O[C@]1(O)C(C)(C)[C@@H](O)CC[C@]21C | > 10 | > 10 | > 10 | > 10 | > 10 | > 10 |
| CC(C)c1cc2c(cc1O)[C@@]1(C)CCCC(C)(C)[C@@H]1CC2=O [SUGIOL] | > 10 | > 10 | > 10 | > 10 | > 10 | > 10 |
| CC(C)c1cc2c(cc1O)[C@@]1(C)C[C@H](O)CC(C)(C)[C@@H]1CC2 | > 10 | > 10 | > 10 | > 10 | > 10 | > 10 |
| COc1c(O)c2c(c(C=O)c1C(C)C)[C@H](O)[C@H]1C(C)(C)CCC[C@]21C | > 10 | > 10 | > 10 | > 10 | > 10 | > 10 |
| CC(C)c1cc2c(c(O)c1O)[C@@]1(C)CCCC(C)(C)[C@@H]1[C@H](O)C2=O | > 10 | > 10 | > 10 | > 10 | > 10 | > 10 |
